Measured values from ChEMBL document CHEMBL1141226, “Discovery of a potent, orally available, and isoform-selective retinoic acid beta2 receptor agonist” (J Med Chem, 2005).
Values after ≈ are worked out from the molar mass of the structure shown. Active and inactive are the calls of the source. No cut-off for these calls is given here.

Experiments:
[1] = Solubility at pH 7.4; format: physicochemical; details: buffer
[2] = test system: MCF7; test: Inhibition of DNA synthesis in MCF7 cells by [3H]thymidine incorporation; format: functional, cell-based; details: Homo sapiens
[3] = biological target: T1, Retinoic acid receptor beta (Homo sapiens, UniProt P10826); test: Transcriptional activity against RARbeta2; format: functional
T1 sequence (P10826 whole entry): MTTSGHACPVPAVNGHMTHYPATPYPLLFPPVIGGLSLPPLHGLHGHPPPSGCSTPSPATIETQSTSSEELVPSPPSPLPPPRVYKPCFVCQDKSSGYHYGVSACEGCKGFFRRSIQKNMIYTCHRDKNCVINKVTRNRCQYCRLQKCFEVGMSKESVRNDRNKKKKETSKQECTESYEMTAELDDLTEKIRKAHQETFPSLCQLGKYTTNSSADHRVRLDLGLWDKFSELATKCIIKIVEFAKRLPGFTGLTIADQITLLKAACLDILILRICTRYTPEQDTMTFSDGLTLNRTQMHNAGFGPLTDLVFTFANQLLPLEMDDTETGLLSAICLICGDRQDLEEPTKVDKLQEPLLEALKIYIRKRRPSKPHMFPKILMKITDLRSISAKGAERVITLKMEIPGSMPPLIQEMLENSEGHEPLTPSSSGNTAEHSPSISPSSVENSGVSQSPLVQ

[4] = biological target: T1, Retinoic acid receptor beta; test: Transcriptional activity against RARbeta1; format: functional
[5] = biological target: T2, Retinoic acid receptor beta (Homo sapiens) (UniProt P10826); test: Efficacy against RARbeta2
T2 sequence (whole entry): T1 sequence (P10826 whole entry)

[6] = biological target: T2, Retinoic acid receptor beta (Homo sapiens); test: Efficacy against RARbeta1
[7] = Distribution coefficient of the compound, log D; format: physicochemical; details: octanol/water
[8] = Partition coefficient of the compound, log P; format: physicochemical; details: octanol/water
[9] = Oral bioavailability in Rats; format: ADME, organism-based; details: rat, in vivo

Row | Compound | solubility [1] [µg/mL] | Activity [2] | EC50 [3] [nM] | EC50 [4] [nM] | Efficacy [5] | Efficacy [6] | logD [7] | logP [8] | bioavailability [9] [%]
1 | CCCCCCCCc1ccc(-c2ccc(C(=O)O)cc2)cc1 | < 1 | Active | 126 | > 10000 | 92% | 31% |  |  | 
2 | CCCCCc1ccc(-c2ccc(C(=O)O)cc2)cc1 |  |  | 15.8 | > 10000 | 38% | inactive |  |  | 
3 | CCc1ccc(-c2ccc(C(=O)O)cc2)cc1 |  |  |  |  | inactive | inactive |  |  | 
4 | CCCCCCCCCc1ccc(-c2ccc(C(=O)O)cc2)cc1 |  |  | 15.8 | 316 | 100% | 58% |  |  | 
5 | CC1(C)CCC(C)(C)c2cc(C(=O)Nc3ccc(C(=O)O)cc3)ccc21 |  |  |  |  | 100% |  |  |  | 
6 | CCCCOCCOc1nc(-c2ccc(C(=O)O)c(F)c2)sc1C | 4800 (≈ 13.6 mM) |  |  |  | 96% | 40% | 1.4 | 5.1 | 52
7 | CCCCCCCc1ccc(-c2ccc(C(=O)O)cc2)cc1 |  |  | 25.1 | > 10000 | 64% | inactive |  |  | 
8 | CCCCc1ccc(-c2ccc(C(=O)O)cc2)cc1 |  |  | 63.1 | > 10000 | 36% | inactive |  |  | 
9 | CCCCCCc1ccc(-c2ccc(C(=O)O)cc2)cc1 |  |  | 50.1 | > 10000 | 37% | inactive |  |  | 
10 | CCCc1ccc(-c2ccc(C(=O)O)cc2)cc1 |  |  |  |  | inactive | inactive |  |  | 
